The values that follow are results of earlier work, collected in patent US12318470B2, “Agent for dyeing keratinuos material, comprising aminosilicone, a chromophoric compound and an addition product of C1-C6 alkylene oxide(s) to the esters of fatty acids and aromatic alcohols” (Henkel AG & Co. KGaA, priority 2020, dated 2025).

For data set [1] the following is noted: 25° C.
The conditions of data set [2]: 5% solution in water.

In the case of `O=S(=O)([O-])c1ccc(N=Nc2c(O)ccc3ccccc23)cc1.[Na+]` [Acid Orange 7, sodium salt of 4-[(2-hydroxy-1-naphthyl)azo]benzene sulphonate], the solubility in water entry in data set [1] was “more than 7 g/L”.

Take `Nc1cc(S(=O)(=O)[O-])cc2cc(S(=O)(=O)[O-])c(N=Nc3ccccc3)c(O)c12.[Na+].[Na+]` [Acid Red 33, diantrium salt of 5-amino-4-hydroxy-3-(phenylazo)-naphthalene-2,7-disulphonate]: in data set [1], the solubility in water was 2500 µg/mL.

In the case of `O=C([O-])c1c(Cl)c(Cl)c(Cl)c(Cl)c1-c1c2c(Br)cc(=O)c(Br)c-2oc2c(Br)c(O)cc(Br)c12.O=C([O-])c1c(Cl)c(Cl)c(Cl)c(Cl)c1-c1c2c(Br)cc(=O)c(Br)c-2oc2c(Br)c(O)cc(Br)c12.[Na+].[Na+]` [Acid Red 92, disodium salt of 3,4,5,6-tetrachloro-2-(1,4,5,8-tetrabromo-6-hydroxy-3-oxoxanthen-9-yl)benzoic acid], in data set [1], the solubility in water entry was “greater than 10 g/L”.

Turning to `O=C([O-])C1=NN(c2ccc(S(=O)(=O)[O-])cc2)C(=O)C1N=Nc1ccc(S(=O)(=O)[O-])cc1.[Na+].[Na+].[Na+]` (centres unmarked) [Acid Yellow 23, trisodium salt of 4,5-dihydro-5-oxo-1-(4-sulfophenyl)-4-((4-sulfophenyl)azo)-1H-pyrazole-3-carboxylic acid], the “solubility in water (in words)” value in data set [1] is listed as “readily soluble”.

For `O=P([O-])(O)O.[K+]` [Potassium dihydrogen phosphate], the “pH value of solution in water” value in data set [2] is recorded as 4.4.
